Counter-ions that a name gives are not always drawn.
What was measured:
[1] = molecular target: T1, human muscarinic acetylcholine M3 receptor (M3-ACh) (Homo sapiens, UniProt P20309); assay: Muscarinic 3 Receptor Binding Assay ([3H]NMS competition, SPA); conditions: [3H]NMS 0.1 nM, CHO-K1 cell membranes, 16 hours at room temperature; read-out: M3 pIC50 (converted)
T1 construct: expressed in transfected cells; host or cells: CHO-K1 (Chinese Hamster Ovary) cell membranes
Experimental: Muscarinic 3 Receptor Binding Assay
The affinity (pIC50) of compounds binding to the M3 receptor is determined by competition binding of [^3H]N-methyl scopolamine (NMS) to CHO-K1 (Chinese Hamster Ovary) cell membranes expressing the human muscarinic acetylcholine M3 receptor (M3-ACh) in a scintillation proximity assay (SPA) format.
SPA beads are precoated with membranes and then incubated at 2 mg of beads per well with serial dilutions of compounds of the invention, [^3H]NMS at 0.1 nM, quarter Kd (experimentally determined dissociation constant) and assay buffer (20 mM HEPES pH 7.4 containing 5 mM MgCl2). The assay is conducted in a final volume of 200 μL, in the presence of 1% (v/v) dimethyl sulphoxide (DMSO). Total binding of [^3H]NMS is determined in the absence of competing compound and non-specific binding of [^3H]NMS is determined in the presence of 1 μM atropine. The plates are incubated for 16 hours at room temperature and then read on Wallac Microbeta™ using a normalised ^3H protocol. The pIC50, defined as the negative logarithm of the molar concentration of compound required for 50% reduction in specific [^3H]-NMS binding, is determined.

[2] = molecular target: T2, Adrenergic β2 (H292 cells) (Homo sapiens, UniProt P07550); assay: Assay for Adrenergic β2 Mediated cAMP Production (concentration response, AlphaScreen cAMP detection); type: cell-based; conditions: for EC50: cAMP production, 60 minutes at room temperature, 300 μM rolipram, read-out: β2 pEC50 (converted); for β2 Intrinsic activity: fraction relative to the maximum activity determined for formoterol
T2 construct: endogenous in cells; host or cells: H292 cells
T2 sequence (P07550 whole entry): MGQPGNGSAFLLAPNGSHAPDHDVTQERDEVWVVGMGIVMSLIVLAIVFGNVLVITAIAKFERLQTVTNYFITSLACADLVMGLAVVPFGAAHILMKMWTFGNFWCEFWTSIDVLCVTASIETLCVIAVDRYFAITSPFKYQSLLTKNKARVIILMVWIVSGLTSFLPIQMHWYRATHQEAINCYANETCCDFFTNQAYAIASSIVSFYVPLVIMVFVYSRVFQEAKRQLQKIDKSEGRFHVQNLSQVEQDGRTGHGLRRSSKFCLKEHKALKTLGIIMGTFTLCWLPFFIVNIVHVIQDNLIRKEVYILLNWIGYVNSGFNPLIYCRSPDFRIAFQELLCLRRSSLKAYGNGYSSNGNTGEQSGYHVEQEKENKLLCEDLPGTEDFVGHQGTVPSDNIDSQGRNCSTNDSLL
Experimental: Assay for Adrenergic β2 Mediated Camp Production
H292 cells are grown in 225 cm2 flasks incubator at 37° C., 5% CO2 in RPMI medium containing 10% (v/v) FBS (foetal bovine serum) and 2 mM L-glutamine.
Adherent H292 cells are removed from tissue culture flasks by treatment with Accutase™ cell detachment solution for 15 minutes. Flasks are incubated for 15 minutes in a humidified incubator at 37° C., 5% CO2. Detached cells are re-suspended in RPMI media (containing 10% (v/v) FBS and 2 mM L-glutamine) at 0.1×10^6 cells per mL. 10000 cells in 100 μL are added to each well of a tissue-culture-treated 96-well plate and the cells incubated overnight in a humidified incubator at 37° C., 5% CO2. The culture media is removed and cells are washed twice with 100 μL assay buffer and replaced with 50 μL assay buffer (HBSS solution containing 10 mM HEPES pH7.4 and 5 mM glucose). Cells are rested at room temperature for 20 minutes after which time 25 μL of rolipram (1.2 mM made up in assay buffer containing 2.4% (v/v) dimethylsulphoxide) is added. Cells are incubated with rolipram for 10 minutes after which time test compounds are added and the cells are incubated for 60 minutes at room temperature. The final rolipram concentration in the assay is 300 μM and final vehicle concentration is 1% (v/v) dimethylsulphoxide. The reaction is stopped by removing supernatants, washing once with 100 μL assay buffer and replacing with 50 μL lysis buffer. The cell monolayer is frozen at −80° C. for 30 minutes (or overnight).
AlphaScreen™ cAMP Detection
The concentration of cAMP (cyclic adenosine monophosphate) in the cell lysate is determined using AlphaScreen™ methodology. The frozen cell plate is thawed for 20 minutes on a plate shaker then 10 μL of the cell lysate is transferred to a 96-well white plate. 40 μL of mixed AlphaScreen™ detection beads pre-incubated with biotinylated cAMP, is added to each well and the plate incubated at room temperature for 3 hours in the dark. The AlphaScreen™ signal is measured using an EnVision spectrophotometer (Perkin-Elmer Inc.) with the recommended manufacturer's settings. cAMP concentrations are determined by reference to a calibration curve determined in the same experiment using standard cAMP concentrations. Concentration response curves for agonists are constructed and data is fitted to a four parameter logistic equation to determine both the pEC50 and Intrinsic Activity. Intrinsic Activity is expressed as a fraction relative to the maximum activity determined for formoterol in each experiment.

T1 sequence (P20309 whole entry): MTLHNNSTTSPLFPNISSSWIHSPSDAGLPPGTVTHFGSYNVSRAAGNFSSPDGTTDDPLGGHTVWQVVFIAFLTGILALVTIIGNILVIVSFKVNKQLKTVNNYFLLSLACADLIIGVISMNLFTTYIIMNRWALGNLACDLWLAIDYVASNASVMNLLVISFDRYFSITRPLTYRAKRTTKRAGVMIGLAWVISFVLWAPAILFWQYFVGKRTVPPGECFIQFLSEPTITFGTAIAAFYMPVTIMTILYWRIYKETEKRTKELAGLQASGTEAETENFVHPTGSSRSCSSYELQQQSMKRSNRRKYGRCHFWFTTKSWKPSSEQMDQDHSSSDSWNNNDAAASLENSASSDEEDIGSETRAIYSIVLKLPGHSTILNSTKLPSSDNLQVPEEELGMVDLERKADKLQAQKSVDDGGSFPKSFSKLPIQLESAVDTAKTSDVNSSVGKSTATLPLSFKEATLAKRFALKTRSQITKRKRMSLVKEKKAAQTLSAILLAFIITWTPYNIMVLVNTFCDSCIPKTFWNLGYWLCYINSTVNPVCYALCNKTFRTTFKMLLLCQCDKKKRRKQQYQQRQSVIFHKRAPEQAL

Compound | IC50 [1] [nM] | EC50 [2] [nM] | β2 Intrinsic activity [2]
O=C(c1nc2ccccc2s1)N1CCOC2(CCN(CCCCCCCCCNC[C@H](O)c3ccc(O)c4[nH]c(=O)sc34)CC2)C1 [Example 107, (R)-7-(2-(9-(4-(Benzo[d]thiazole-2-carbonyl)-1-oxa-4,9-diazaspiro[5.5]undecan-9-yl)nonylamino)-1-hydroxyethyl)-4-hydroxybenzo[d]thiazol-2(3H)-one formate] | 6.31 | 39.8 | 0.9
O=C(c1csc(-c2ccccc2)n1)N1CCOC2(CCN(CCOc3ccc(CNC[C@H](O)c4ccc(O)c5[nH]c(=O)sc45)cc3)CC2)C1 [Example 112, (R)-4-Hydroxy-7-(1-hydroxy-2-(4-(2-(4-(2-phenylthiazole-4-carbonyl)-1-oxa-4,9-diazaspiro[5.5]undecan-9-yl)ethoxy)benzylamino)ethyl)benzo[d]thiazol-2(3H)-one ditrifluoroacetate] | 501 | 126 | 0.9
CC(C)c1csc(C(=O)N2CCOC3(CCN(Cc4cccc(CCNC[C@H](O)c5ccc(O)c6[nH]c(=O)ccc56)c4)CC3)C2)n1 [Example 76, (R)-8-Hydroxy-5-(1-hydroxy-2-(3-((4-(4-isopropylthiazole-2-carbonyl)-1-oxa-4,9-diazaspiro[5.5]undecan-9-yl)methyl)phenethylamino)ethyl)quinolin-2(1H)-one ditrifluoroacetate] | 2 | 31.6 | 0.9
Cc1nc(C(=O)N2CCOC3(CCN(CCc4ccc(CCNC[C@H](O)c5ccc(O)c6[nH]c(=O)sc56)cc4)CC3)C2)cs1 [Example 5, (R)-4-Hydroxy-7-(1-hydroxy-2-(4-(2-(4-(2-methylthiazole-4-carbonyl)-1-oxa-4,9-diazaspiro[5.5]undecan-9-yl)ethyl)phenethylamino)ethyl)benzo[d]thiazol-2(3H)-one ditrifluoroacetate] | 2.51 | 79.4 | 0.9
CC(C)c1ncc(C(=O)N2CCOC3(CCN(CCCCCCCCCNC[C@H](O)c4ccc(O)c5[nH]c(=O)sc45)CC3)C2)s1 [Example 115, (R)-4-Hydroxy-7-(1-hydroxy-2-(9-(4-(2-isopropylthiazole-5-carbonyl)-1-oxa-4,9-diazaspiro[5.5]undecan-9-yl)nonylamino)ethyl)benzo[d]thiazol-2(3H)-one formate] | 7.94 | 6.31 | 0.8
CC(C)c1ncc(C(=O)N2CCOC3(CCN(CCOc4ccc(CNC[C@H](O)c5ccc(O)c6[nH]c(=O)sc56)cc4)CC3)C2)s1 [Example 114, (R)-4-Hydroxy-7-(1-hydroxy-2-(4-(2-(4-(2-isopropylthiazole-5-carbonyl)-1-oxa-4,9-diazaspiro[5.5]undecan-9-yl)ethoxy)benzylamino)ethyl)benzo[d]thiazol-2(3H)-one ditrifluoracetate] | 316 | 63.1 | 0.9
Cc1nc(C(=O)N2CCOC3(CCN(Cc4cccc(CCNCC(O)c5ccc(O)c6c5OCC(=O)N6)c4)CC3)C2)cs1 (single isomer, unassigned; isomer 2) [Example 13, 5-Hydroxy-8-(1-hydroxy-2-(3-((4-(2-methylthiazole-4-carbonyl)-1-oxa-4,9-diazaspiro[5.5]undecan-9-yl)methyl)phenethylamino)ethyl)-2H-benzo[b][1,4]oxazin-3(4H)-one ditrifluoroacetate, Isomer 2] | 0.0794 | 39.8 | 0.8

Continued, values first:

IC50 [1] [nM] | EC50 [2] [nM] | β2 Intrinsic activity [2] | Compound
7.94 | 5.01 | 0.9 | CC(C)c1nc(C(=O)N2CCOC3(CCN(Cc4cc(Cl)cc(CCNC[C@H](O)c5ccc(O)c6[nH]c(=O)sc56)c4)CC3)C2)cs1 [Example 52, (R)-7-(2-(3-Chloro-5-((4-(2-isopropylthiazole-4-carbonyl)-1-oxa-4,9-diazaspiro[5.5]undecan-9-yl)methyl)phenethylamino)-1-hydroxyethyl)-4-hydroxybenzo[d]thiazol-2(3H)-one ditrifluoroacetate]
0.794 | 12.6 | 1 | CCC(CC)c1nc(C(=O)N2CCOC3(CCN(Cc4cccc(CCNC[C@H](O)c5ccc(O)c6[nH]c(=O)sc56)c4)CC3)C2)cs1 [Example 265, (R)-4-Hydroxy-7-(1-hydroxy-2-(3-((4-(2-(pentan-3-yl)thiazole-4-carbonyl)-1-oxa-4,9-diazaspiro[5.5]undecan-9-yl)methyl)phenethylamino)ethyl)benzo[d]thiazol-2(3H)-one ditrifluoroacetate]
0.794 | 5.01 | 0.9 | CC(C)Cc1nc(C(=O)N2CCOC3(CCN(Cc4cccc(CCNC[C@H](O)c5ccc(O)c6[nH]c(=O)sc56)c4)CC3)C2)cs1 [Example 84, (R)-4-Hydroxy-7-(1-hydroxy-2-(3-((4-(2-isobutylthiazole-4-carbonyl)-1-oxa-4,9-diazaspiro[5.5]undecan-9-yl)methyl)phenethylamino)ethyl)benzo[d]thiazol-2(3H)-one ditrifluoroacetate]
10 | 15.8 | 0.9 | CCCCc1nc(C(=O)N2CCOC3(CCN(Cc4cccc(CCNC[C@H](O)c5ccc(O)c6[nH]c(=O)sc56)c4F)CC3)C2)cs1 [Example 78, (R)-7-(2-(3-((4-(2-Butylthiazole-4-carbonyl)-1-oxa-4,9-diazaspiro[5.5]undecan-9-yl)methyl)-2-fluorophenethylamino)-1-hydroxyethyl)-4-hydroxybenzo[d]thiazol-2(3H)-one ditrifluoroacetate]
0.794 | 15.8 | 0.9 | CC(C)c1csc(C(=O)N2CCOC3(CCN(Cc4cccc(CCNC[C@H](O)c5ccc(O)c6[nH]c(=O)sc56)c4)CC3)C2)n1 [Example 66, (R)-4-Hydroxy-7-(1-hydroxy-2-(3-((4-(4-isopropylthiazole-2-carbonyl)-1-oxa-4,9-diazaspiro[5.5]undecan-9-yl)methyl)phenethylamino)ethyl)benzo[d]thiazol-2(3H)-one ditrifluoroacetate]
79.4 | 251 | 0.7 | CC(C)c1nc(C(=O)N2CCOC3(CCN(Cc4ccc(C(F)(F)F)c(CCNC[C@H](O)c5ccc(O)c6[nH]c(=O)sc56)c4)CC3)C2)cs1 [Example 270, (R)-4-Hydroxy-7-(1-hydroxy-2-(5-((4-(2-isopropylthiazole-4-carbonyl)-1-oxa-4,9-diazaspiro[5.5]undecan-9-yl)methyl)-2-(trifluoromethyl)phenethylamino)ethyl)benzo[d]thiazol-2(3H)-one ditrifluoroacetate]
2 | 12.6 | 1 | CC(C)c1nc(C(=O)N2CCOC3(CCN(Cc4cccc(CCCNC[C@H](O)c5ccc(O)c6[nH]c(=O)sc56)c4F)CC3)C2)cs1 [Example 88, (R)-7-(2-(3-(2-Fluoro-3-((4-(2-isopropylthiazole-4-carbonyl)-1-oxa-4,9-diazaspiro[5.5]undecan-9-yl)methyl)phenyl)propylamino)-1-hydroxyethyl)-4-hydroxybenzo[d]thiazol-2(3H)-one ditrifluoroacetate]

From patent US8148373B2, “Compounds” (AstraZeneca AB, priority 2008, dated 2012)
